Results on six compounds are retold here after US20110178052A1, “9-ALPHA ESTRATRIENE DERIVATIVES AS ER-BETA SELECTIVE LIGANDS FOR THE PREVENTION AND TREATMENT OF INTESTINAL CANCER” (Bayer Schering Pharma Aktiengesellschaft, priority 2008, published 2011).

Holding throughout (format): in vivo, rat
One assay deals with OVX rats. Kind of assay: Uterine wet weights of ovariectomized rats after 3 weeks of treatment. As to conditions: for uterine wet weights: s.c., 3 weeks, E2 4 μg, GEN 10 mg, ALPHA 10 μg, BETA I 100 μg kg-1 b.wt d-1, vs OVX. The protocol: (§1) Post pubertal animals were ovariectomized (OVX) at the age of three months and weighing 200-220 g. After 14 days of endogenous hormonal decline the animals were treated with the test compounds or vehicle for three weeks. The animals were randomly allocated to treatment and vehicle groups (n=6). E2 (4 μg kg-1 b.wt d-1), GEN (10 mg kg-1 b.wt d-1), ALPHA (10 μg kg-1 b.wt d-1), BETA 1 (100 μg kg-1 b.wt d-1), BETA II (5-15-50 μg kg-1 b.wt d-1) and ICI (3 mg kg-1 b.wt d-1) were dissolved in dimethylsulfoxide (DMSO) (200 μl/KG b. wt/d) and corn oil (800 μl/KG b. wt/d) for s.c. administration.
(§2) Animals were sacrificed by decapitation after light anesthesia with CO2 inhalation. Uteri and intestinal tissues were prepared free of fat and were fixed in 4% formalin (for immunohistochemical analysis) and liquid nitrogen (for molecular biology). The uterine wet weights were determined.

The subject of assay [1] is PCNA. Kind of assay: Western Blot analysis of PCNA in ileal mucosa. As to conditions: for PCNA expression of intestinal mucosa cells, Western Blot densitometric evaluation: OVX rats, s.c., 3 weeks, E2 4 μg, GEN 10 mg, ALPHA 10 μg, BETA I 100 μg kg-1 b.wt d-1. The protocol:
as §1
(§3) Ileal mucosa and rectal colon were dissected from the animals and immediately stored in liquid nitrogen. Pooled frozen tissue (n=6 animals per group) was powdered and homogenized in a buffer (623.5 nM Tris pH 8 EDTA) containing enzyme inhibitors (5 mg/ml aprotonin, 5 mg/ml leupeptin, 1 mg/ml pepstatin-A, 5 mg/ml antipain, 100 mM pefac in 0.5 M EDTA, pH 8). Protein concentrations were determined by the method of Lowry (Dc Protein Assay, Bio-Rad). Equal amounts of sample (40 μg protein) were loaded on a Protean II ready Gel (Bio-Rad).
(§4) After electrophoresis and separation, samples were transferred onto nitrocellulose membranes and blocked with 5% BSA in Phosphate (100 mM)-buffered saline solution (pH 7.4) at room temperature for 2 hours. The immobilized proteins were quantitatively detected using specific antibodies for actin and GAPDH (A5060 and G8795, Sigma-Aldrich, Steinheim, Germany), PCNA Clone PC 10 (Dako, Glostrup, Denmark), M30 Cytodeath (ALX-804-590, Alexis, San Diego, Calif., USA) and active caspase-3 (557035, BD Pharmingen, Heidelberg, Germany).
(§5) Polyclonal Swine Anti-Rabbit Immunglobulins/HRP and Polyclonal Rabbit Anti-Mouse Immunglobulins/HRP (P0217 and P0260, Dako, Glostrup, Denmark) were used as species-specific HRP-conjugated secondary antibodies.
(§6) Blot signals were visualized by the chemoluminescent POD-Substrate (Lumi-Light Plus, Roche Diagnostics, Mannheim, Germany) and a Fluorchem Luminescent Imager (Alpha Innotech, CA, USA).
(§7) The protein bands were quantified by densitometry using ImageJ 1.38. To account for in homogenous protein loading of the slots we calculated the ratio of […] (PCNA, M30, active caspase-3).
Background: Immunoblotting shows a protein as a band on a membrane.

The test system of a further assay is active caspase-3. Kind of assay: Western Blot analysis of active caspase-3 in ileal mucosa. The note with it: for activation of caspase-3: OVX rats, s.c., 3 weeks, E2 4 μg, GEN 10 mg, ALPHA 10 μg, BETA I 100 μg kg-1 b.wt d-1. Here is the method:
as §1, §3, §4, §5, §6, §7

Assay [2] has as its system PCNA. In words: Immunohistochemical staining of PCNA in colonic mucosa cells. The note with it: OVX rats, immunohistochemistry of rectal colonic cross sections; BETA II at 5 μg/Kg. Here is the method:
as §1, §2
(§8) Formalin-fixed intestinal samples were embedded in paraffin, sliced with a microtome (7 μm sections). After deparaffinization, antigen retrieval was performed in an incubator for 20 h at 60° C. in 0.01 M citrate buffer pH 6.0.
Subsequently, endogenous peroxidases were blocked for 20 min. with 3% hydrogen peroxide and the slides were covered with a 0,25% Triton X-100 solution for 10 min. […]
Quantitative analysis was performed in complete crypts of normal mucosa. […]

A further assay deals with cytokeratin 18 (M 30). In words: Western Blot analysis of cytokeratin 18 cleavage (M30) in colon. As to conditions: OVX rats, BETA II at 5 μg. Here is the method: as §1
Ileal mucosa and rectal colon were dissected from the animals and immediately stored in liquid nitrogen. […] Protein concentrations were determined by the method of Lowry (Dc Protein Assay, Bio-Rad). Equal amounts of sample (40 μg protein) were loaded on a Protean II ready Gel (Bio-Rad).
After electrophoresis and separation, samples were transferred onto nitrocellulose membranes and blocked with 5% BSA in Phosphate (100 mM)-buffered saline solution (pH 7.4) at room temperature for 2 hours. The immobilized proteins were quantitatively detected using specific antibodies for actin and GAPDH (A5060 and G8795, Sigma-Aldrich, Steinheim, Germany), PCNA Clone PC 10 (Dako, Glostrup, Denmark), M30 Cytodeath (ALX-804-590, Alexis, San Diego, Calif., USA) and active caspase-3 (557035, BD Pharmingen, Heidelberg, Germany). […]

Another assay concerns intestinal mucosa. Kind of assay: Doses effect of BETA II on the intestinal mucosa. The protocol:
as §1
BETA II was tested at 5, 15 and 50 μg kg-1 b.wt d-1.
Ileal mucosa and rectal colon were dissected from the animals and immediately stored in liquid nitrogen. […] Protein concentrations were determined by the method of Lowry (Dc Protein Assay, Bio-Rad). Equal amounts of sample (40 μg protein) were loaded on a Protean II ready Gel (Bio-Rad). […]
as §7

The subject of assay [3] is PCNA. In words: Immunohistochemical staining of PCNA in ileal mucosa cells. As to conditions: OVX rats, s.c., 3 weeks; E2 4 μg, GEN 10 mg, ALPHA 10 μg, BETA I 100 μg kg-1 b.wt d-1. Here is the method:
as §1, §2, §8
Subsequently, endogenous peroxidases were blocked for 20 min. with 3% hydrogen peroxide and the slides were covered with a 0,25% Triton X-100 solution for 10 min.
The primary antibody, PCNA Clone PC10 (Dako, Glostrup, Denmark) was applied at dilutions of 1:100, respectively.
After 1 h incubation with the primary antibodies, samples were incubated with the secondary antibody: Polyclonal Goat Anti-Mouse Immunglobulins/Biotinylated (Dako, Glostrup, Denmark).
Afterwards the sections were covered with Streptavidin-biotinylated Horseradish Peroxidase Complex (GE Healthcare, Little Chalfont Buckinghamshire, UK) at a dilution of 1:400. The samples were developed with DAB for 10 min. For negative controls, slides were immunostained in the absence of the primary antibody.
Quantitative analysis was performed in complete crypts of normal mucosa. Brown nuclear staining was indicative of a positive PCNA signal.

The subject of the next assay is PCNA mRNA. Kind of assay: PCNA mRNA expression in the intestinal mucosa. The note with it: OVX rats, FIG. 3B. Here is the method: as §1
Where [4] appears, read: BETA I and BETA II at the same concentration (5 μg), pooled ileal tissue, FIG. 6.
The mark [5] stands for this setting: OVX rats co-treated with BETA I 100 μg and ICI 3 mg kg-1 b.wt d-1.

Entries after “also recorded” stand apart in the source; their conditions may differ.

For `C=C[C@]12CC[C@]3(C)[C@@H](F)[C@H](O)C[C@H]3[C@@H]1CCc1cc(O)ccc12` [BETA II, 17β-Fluoro-9α-vinyl-estra-1,3,5(10)-triene-3,16α-diol], the “effect on the uterus weight” value with OVX rats (BETA II at 5 μg/kg) is given as “does not show any measurable effect”. Also, the “down regulation of the expression of the proliferation marker PCNA compared with BETA I” value in the assay with PCNA [1] (setting [4]) was “improved effect”. The “activation of the caspase-3 compared with BETA I” value in the assay on active caspase-3 (setting [4]) is on record as “at a higher level”. Also, the “PCNA expression in colonic mucosa cells” value in the assay on PCNA [2] is reported as “reduced”. For the same compound, the “cleavage of cytokeratin 18 (M 30) in colonic mucosa cells” value in the assay with cytokeratin 18 (M 30) was “dramatically induced; also recorded: significant stimulation”. In the assay with intestinal mucosa (BETA II at 5 μg/kg vs BETA I), the “activity relative to BETA I on effects regulating the intestinal homeostasis” value is recorded as “about 20 times”. The “doses effect in the intestinal mucosa” value with intestinal mucosa (OVX rats, BETA II tested at 5, 15 and 50 μg kg-1 b.wt d-1) is “strongest effect at lowest tested dose of 5 μg/kg”.
`C[C@]12CC[C@@H]3c4ccc(O)cc4CC[C@H]3[C@@H]1C[C@H]1OC(=O)C[C@]12O` [ALPHA, 3,17-dihydroxy-19-nor-17α-pregna-1,3,5(10)-triene-21,16α-lactone]: the uterine wet weights result in the assay on OVX rats is “strongly increased”. In the assay with PCNA [3], the “PCNA protein expression, immunostaining of ileal cross sections” value (“PCNA protein expression, immunostaining” for short) was “slightly induced”. Also, the “PCNA expression of intestinal mucosa cells, Western Blot densitometric evaluation” value in the assay on PCNA [1] (pooled ileal tissue) is listed as “elevation”. Further, the “activation of caspase-3” value with active caspase-3 (pooled ileal tissue) was “moderately”.
In the case of `O=c1c(-c2ccc(O)cc2)coc2cc(O)cc(O)c12` [GEN, 4′,5,7-trihydroxyisoflavone], the uterine wet weights entry with OVX rats was “faint, although significant increase”. In the assay with PCNA [3], the “PCNA protein expression, immunostaining” value is “significantly reduced”. In the assay on PCNA [1] (pooled ileal tissue), the “PCNA expression of intestinal mucosa cells, Western Blot densitometric evaluation” value is “reduced”. Besides, the “PCNA mRNA Expression in the intestinal Mucosa” value in the assay on PCNA mRNA is “diminished”. In the assay with active caspase-3 (pooled ileal tissue), the “activation of caspase-3” value is “moderately”. For the same compound, in the assay with PCNA [2], the “PCNA expression in colonic mucosa cells” value is listed as “reduced”.
`C[C@]12CC[C@@H]3c4ccc(O)cc4CC[C@H]3[C@@H]1CC[C@@H]2O` [E2, 17β-estradiol]: the uterine wet weights entry in the assay on OVX rats is “strong stimulation”. Further, in the assay with PCNA [3], the “PCNA protein expression, immunostaining” value is on record as “slightly induced”. For the same compound, the “PCNA expression of intestinal mucosa cells, Western Blot densitometric evaluation” value in the assay on PCNA [1] (pooled ileal tissue) is listed as “not affected”. Further, in the assay with active caspase-3 (pooled ileal tissue), the “activation of caspase-3” value was “remained on a low level”. Moreover, the “cleavage of cytokeratin 18 (M 30) in colonic mucosa cells” value in the assay on cytokeratin 18 (M 30) was “only marginally increased”.
For `C[C@]12CC[C@@H]3c4ccc(O)cc4C[C@@H](CCCCCCCCC[S+]([O-])CCCC(F)(F)C(F)(F)F)[C@H]3[C@@H]1CC[C@@H]2O` (some centres unmarked) [ICI], in the assay on PCNA [1] (setting [5]), the “effect of co-administration of ICI on anti-proliferative effect (PCNA) of BETA I” value is listed as “antogonization”. Further, the “effect of co-administration of ICI on pro-apoptotic effect (active caspase-3) of BETA I” value in the assay with active caspase-3 (setting [5]) was “antogonization”.
Consider `C=C[C@@]12CCc3cc(O)ccc3[C@H]1CC[C@@]1(C)[C@H]2CC[C@@H]1O` [BETA I, 8β-vinyl-estra-1,3,5(10)-triene-3,17β-diol], for which, in the assay on OVX rats, the uterine wet weights entry is given as “no significant uterus stimulation”. For the same compound, the “PCNA protein expression, immunostaining” value with PCNA [3] is “significantly reduced”. Also, the “PCNA expression of intestinal mucosa cells, Western Blot densitometric evaluation” value in the assay on PCNA [1] (pooled ileal tissue) is listed as “reduced”. The “PCNA mRNA Expression in the intestinal Mucosa” value in the assay on PCNA mRNA is “diminished”. Also, the “activation of caspase-3” value with active caspase-3 (pooled ileal tissue) is listed as “dramatically promoted”.
